Like-named read-outs stand apart in the source and are kept apart here.
Key:
[1] = test system: chronic myelogenous leukemia (K562); test: MTT cytotoxicity assay, K562; assay type: cell-based, human; conditions: 48 h exposure, read-out: IC50 ± SD, K562
Procedure: (§1) The cytotoxic activity of the complexes obtained was screened against several human solid and hematopoietic cancer cell lines using the conventional MTT assay. To evaluate their selectivity for cancerous over non-cancerous cells, analogous tests were performed with pseudonormal human embryonic kidney (HEK293) and breast epithelial (HBL100) cell lines.
(§2) The cytotoxicity of the compounds obtained was investigated on human colorectal carcinoma (HCT116), breast cancer (MCF7), prostate adenocarcinoma (PC3), glioblastoma (U251), ovarian adenocarcinoma (Scov3), chronic myelogenous leukemia (K562 and K562/iS9), multiple plasmacytoma (AMO1), and acute lymphoblastic leukemia (H9) cell lines, as well as human embryonic kidney (HEK293) and mammary epithelial (HBL100 and HBL100/Dox) cells used as non-cancerous cell lineages. All the cell lines were obtained from American Type Culture Collection (ATCC). The tested compounds were initially dissolved in DMSO. Cisplatin was obtained from a commercial source (as an infusion concentrate in natural saline solution). The experiments were performed using the conventional MTT assay (ICN Biomedicals, Eschwege, Germany) according to the previously published procedure.

[2] = test system: ovarian adenocarcinoma (Scov3); test: MTT cytotoxicity assay, Scov3; assay type: cell-based, human
Procedure: as §1, §2

[3] = test system: breast cancer (MCF7); test: MTT cytotoxicity assay, MCF7; assay type: cell-based, human; conditions: 48 h exposure, read-out: IC50 ± SD, MCF7
Procedure: as §1, §2

[4] = Stability in DMSO solution by 31P NMR monitoring; assay type: physicochemical; conditions: at least for several days
Description: The identities and structures of both free amides 2–8 and their cyclopalladated derivatives were unambiguously confirmed based on the IR and multinuclear NMR spectroscopic data (including different 2D NMR techniques), as well as elemental analyses, which are presented in detail in Section 3 (Materials and Methods) and Figures S1–S31 in the Supporting Information (SI). The realization of metalation of the central secondary amide unit in the resulting complexes was supported by the lack of NH proton singlets in the ^1H NMR spectra, as well as the absence of amide II and amide A bands in the IR spectra. The coordination of the thiophosphoryl pendant arm was evidenced by a strong downfield shift of the phosphorus resonance (ΔδP = 8.1–17.4 ppm) and the displacement of the P=S bond stretches towards lower frequencies, which reached up to 65 cm^−1. The coordination of the additional N- or S-donor unit was indirectly indicated by considerable shifts of the signals of CH/CH3 protons or quaternary carbon nuclei located in the close proximity to the heteroatom (for example, ΔδH for the methyl substituent in the thioether group of 13a,b was more than 0.65 ppm, while a coordination shift of the proton signal, corresponding to the CH unit adjacent to the nitrogen atom of the pyridine ring of 9, composed 0.45 ppm).

[5] = test system: glioblastoma (U251); test: MTT cytotoxicity assay, U251; assay type: cell-based, human
Procedure: as §1, §2

[6] = test system: doxorubicin-resistant mammary epithelial cells HBL100/Dox; test: MTT cytotoxicity assay, HBL100/Dox; assay type: cell-based, human; conditions: 48 h exposure, doxorubicin-resistant clone, read-out: IC50 ± SD, HBL100/Dox
Procedure: as §1, §2

[7] = test system: acute lymphoblastic leukemia (H9); test: MTT cytotoxicity assay, H9; assay type: cell-based, human; conditions: 48 h exposure, read-out: IC50 ± SD, H9
Procedure: as §1
as §2, with “Cisplatin was obtained from a commercial source (as an infusion concentrate in natural saline solution).” left out

[8] = test system: multiple plasmacytoma (AMO1); test: MTT cytotoxicity assay, AMO1; assay type: cell-based, human; conditions: 48 h exposure, read-out: IC50 ± SD, AMO1
Procedure: as §1, §2

[9] = test system: mammary epithelial cells HBL100; test: MTT cytotoxicity assay, HBL100; assay type: cell-based, human; conditions: 48 h exposure, non-cancerous cells, read-out: IC50 ± SD, HBL100
Procedure: as §1, §2

[10] = test system: human embryonic kidney (HEK293); test: MTT cytotoxicity assay, HEK293; assay type: cell-based; conditions: 48 h exposure, non-cancerous cells, read-out: IC50 ± SD, HEK293
Procedure: as §1, §2

[11] = test system: doxorubicin-resistant subline of chronic myelogenous leukemia cells (K562/iS9); test: MTT cytotoxicity assay, K562/iS9; assay type: cell-based, human; conditions: 48 h exposure, read-out: IC50 ± SD, K562/iS9
Procedure: as §1, §2

[12] = test system: human colorectal carcinoma (HCT116); test: MTT cytotoxicity assay, HCT116; assay type: cell-based; conditions: 48 h exposure, read-out: IC50 ± SD, HCT116
Procedure: as §1, §2

[13] = test system: prostate adenocarcinoma (PC3); test: MTT cytotoxicity assay, PC3; assay type: cell-based, human; conditions: 48 h exposure, read-out: IC50 ± SD, PC3
Procedure: as §1, §2

[14] = test system: breast cancer (MCF7); design: method as in PMID 37818804; conditions: MTT; read-out: IC50 ± SD, MCF7; cited from earlier work
[15] = test system: doxorubicin-resistant mammary epithelial cells HBL100/Dox; conditions: MTT; read-out: IC50 ± SD, HBL100/Dox; cited from earlier work
[16] = test system: multiple plasmacytoma (AMO1); design: method as in PMID 37818804; conditions: MTT; read-out: IC50 ± SD, AMO1; cited from earlier work
[17] = test system: doxorubicin-resistant subline of chronic myelogenous leukemia cells (K562/iS9); conditions: MTT; read-out: IC50 ± SD, K562/iS9; cited from earlier work
[18] = test system: prostate adenocarcinoma (PC3); design: method as in PMID 37818804; conditions: MTT; read-out: IC50 ± SD, PC3; cited from earlier work
[19] = test system: acute lymphoblastic leukemia (H9); design: method as in PMID 37818804; conditions: MTT; read-out: IC50 ± SD, H9; cited from earlier work
[20] = test system: mammary epithelial cells HBL100; design: method as in PMID 37818804; conditions: MTT; read-out: IC50 ± SD, HBL100; cited from earlier work
[21] = test system: chronic myelogenous leukemia (K562); design: method as in PMID 37818804; conditions: MTT; read-out: IC50 ± SD, K562; cited from earlier work
[22] = test system: human embryonic kidney (HEK293); design: method as in PMID 37818804; conditions: MTT; read-out: IC50 ± SD, HEK293; cited from earlier work
[23] = test system: human colorectal carcinoma (HCT116); design: method as in PMID 37818804; conditions: MTT; read-out: IC50 ± SD, HCT116; cited from earlier work
[24] = biological target: T1, P-glycoprotein (P-gp) (Homo sapiens, UniProt P08183); test: P-gp functional activity, Rh123 efflux from K562/iS9 cells; assay type: cell-based; conditions: 20 μM of complex, 37 °C, 30 min, flow cytometry
T1 construct: We assessed the efflux of the fluorescent dye Rhodamine 123 (Rh123) from cells with a high P-gp content—K562/iS9 cells; endogenous in cells; host or cells: K562/iS9 (doxorubicin-resistant subline of K562)
T1 sequence (P08183 whole entry): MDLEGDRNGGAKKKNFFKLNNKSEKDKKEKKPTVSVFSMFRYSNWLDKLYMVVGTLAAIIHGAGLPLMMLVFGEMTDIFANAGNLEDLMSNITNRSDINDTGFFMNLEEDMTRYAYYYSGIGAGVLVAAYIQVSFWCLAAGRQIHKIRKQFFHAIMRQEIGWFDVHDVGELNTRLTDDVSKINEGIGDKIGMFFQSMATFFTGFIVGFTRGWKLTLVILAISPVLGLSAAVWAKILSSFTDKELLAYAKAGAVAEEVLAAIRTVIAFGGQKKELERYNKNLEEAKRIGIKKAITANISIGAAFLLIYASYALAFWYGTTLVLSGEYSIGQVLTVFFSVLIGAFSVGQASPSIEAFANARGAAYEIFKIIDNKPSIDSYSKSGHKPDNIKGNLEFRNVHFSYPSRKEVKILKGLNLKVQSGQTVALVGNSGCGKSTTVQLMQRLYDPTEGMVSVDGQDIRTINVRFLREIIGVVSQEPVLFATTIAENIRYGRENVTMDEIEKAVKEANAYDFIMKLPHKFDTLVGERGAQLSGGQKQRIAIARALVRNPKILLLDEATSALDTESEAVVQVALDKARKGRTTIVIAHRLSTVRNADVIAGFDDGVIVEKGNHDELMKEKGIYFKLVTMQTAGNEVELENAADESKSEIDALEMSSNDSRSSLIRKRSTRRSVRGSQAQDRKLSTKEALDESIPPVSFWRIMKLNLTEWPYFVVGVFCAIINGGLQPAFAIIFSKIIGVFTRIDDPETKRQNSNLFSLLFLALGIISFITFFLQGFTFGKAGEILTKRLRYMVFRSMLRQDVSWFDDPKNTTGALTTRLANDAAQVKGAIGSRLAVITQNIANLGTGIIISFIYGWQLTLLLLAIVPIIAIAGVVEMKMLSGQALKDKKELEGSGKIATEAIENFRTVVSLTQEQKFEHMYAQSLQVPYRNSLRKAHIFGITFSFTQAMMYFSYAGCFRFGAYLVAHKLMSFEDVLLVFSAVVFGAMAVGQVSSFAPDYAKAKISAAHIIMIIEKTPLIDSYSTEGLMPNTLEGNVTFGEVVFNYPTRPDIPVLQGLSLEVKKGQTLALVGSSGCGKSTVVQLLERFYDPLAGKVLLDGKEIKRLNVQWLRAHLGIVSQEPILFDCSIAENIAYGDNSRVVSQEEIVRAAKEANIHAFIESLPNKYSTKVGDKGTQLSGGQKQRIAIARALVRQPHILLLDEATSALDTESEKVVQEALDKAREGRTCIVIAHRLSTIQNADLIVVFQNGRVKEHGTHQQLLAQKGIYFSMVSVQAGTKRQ
Procedure: We assessed the efflux of the fluorescent dye Rhodamine 123 (Rh123) from cells with a high P-gp content—K562/iS9 cells [31].
The functional activity of P-gp was evaluated by the method described earlier [40]. K562/iS9 cells (3 × 10^6) were incubated for 15 min in a culture medium containing 5 μg/mL of Rh123 (Sigma-Aldrich, St. Louis, MO, USA). After incubation, the cells were washed twice and divided into several fractions. […] The incubation was carried out in the full culture medium at 37 °C for 30 min. […] The cell fluorescence was evaluated using a flow cytometer (Becton Dickinson). The results were analyzed using the CellQuest software.

[25] = test system: hematopoietic cancer cells; test: MTT cytotoxicity assay, hematopoietic cancer cells; assay type: cell-based, human; conditions: inactive at concentrations up to
Procedure: as §1, §2

[26] = test system: solid cancer cells; test: MTT cytotoxicity assay, solid cancer cells; assay type: cell-based, human; conditions: inactive at concentrations up to
Procedure: as §1, §2

[27] = test system: Groenewaldozyma auringiensis (VKM Y-2927); test: Agar well diffusion, G. auringiensis; assay type: cell-based; conditions: 10 µL per well, 28 °C, 24 h
Procedure: (§3) The microbial strains Bacillus subtillis (VKM B-501), Micrococcus luteus (VKM Ac-2230), and Groenewaldozyma auringiensis (VKM Y-2927) were used for antimicrobial activity tests. All strains were obtained from the All-Russian Collection of Microorganisms (VKM) at the Skryabin Institute of Biochemistry and Physiology of Microorganisms, Pushchino Scientific Center of Biological Research. B. subtilis and M. luteus were grown on the following medium (g/L): aminopeptide 60 mL; tryptone 5.0 g; yeast extract 1.0 g; soybean extract 30 mL; bacto-agar 15.0 g; final pH 7.2. G. auringiensis was grown on malt extract medium containing the following medium (g/L): malt extract 12.75; dextrin 2.75; glycerol 2.35; gelatin peptone 0.78; bacto-agar 15; final pH 5.4. The antimicrobial activity of ligand 17 and its cyclopalladated derivative 18 (both in the racemic form) was studied by the agar well diffusion method. The overnight grown culture of each strain (100 µL) was applied to the surface of the solid medium, then spread on agar plates using a glass spreader, and left for 30 min. The wells were cut in the culture plates using a sterilized glass tube (4 mm in diameter), and each compound sample was dissolved in DMSO to a final concentration of 0.25 or 2.5 mM (10 µL) and was placed in each well. After this, the plates were kept at room temperature for 3 h to improve the diffusion of the compounds and incubated at 28 °C for 24 h. DMSO (15%) was used as a negative control, while kanamycin (50 mg/mL) was used as a positive control. The antimicrobial activity was determined by measuring the inhibition zone around each well as a mean of three replicates.

[28] = test system: K562 cells; test: Apoptosis induction, Annexin V-FITC/PI flow cytometry, K562; assay type: cell-based, human; conditions: 10 μM, 20 h
Description: (§4) To our delight, in general the biological profile of complex (R)-18 appeared to be close to that of the previously reported phenyl-substituted counterpart (compare entries 10 and 1 in Table 1 and entries 6 and 1 in Table 2), with a lower activity on HCT116 and PC3 cells but remarkably higher selectivity towards K562 cells over non-cancerous HEK293 cells. […] The total percentage of early (lower right quadrant) and late (upper right quadrant) apoptotic cells for (R)-18 on K562/iS9 subline was even higher than in the parental cells. These findings prompted us to gain further insight into the bioactivity of the Pd(II) pincer complexes of thiophosphoryl-functionalized amides from the viewpoint of their potential to overcome drug resistance.
(§5) The apoptosis-inducing ability of enantiomerically pure and racemic complexes 18 was studied on K562 and K562/iS9 cells that were cultured in a medium containing 10 μM of the tested palladocycle for 20 h. The experiments were performed following the published procedure. The analysis was carried out on a FACScan flow cytometer (Becton Dickinson, Franklin Lakes, NJ, USA) using the CellQuest software (version 3.3).

[29] = test system: Bacillus subtillis (VKM B-501); test: Agar well diffusion, B. subtillis; assay type: cell-based; conditions: 10 µL per well, 28 °C, 24 h
Procedure: as §3

[30] = test system: K562/iS9 cells; test: Apoptosis induction, Annexin V-FITC/PI flow cytometry, K562/iS9; assay type: cell-based, human; conditions: 10 μM, 20 h
Description: as §4, §5

[31] = test system: Micrococcus luteus (VKM Ac-2230); test: Agar well diffusion, M. luteus; assay type: cell-based; conditions: 10 µL per well, 28 °C, 24 h
Procedure: as §3

| Compound | IC50 [1] | IC50 [2] | IC50 [3] | IC50 [5] | IC50 [6] | IC50 [7] | IC50 [8] | IC50 [9] | IC50 [10] | IC50 [11] | IC50 [12] | IC50 [13] | other results |
| --- | --- | --- | --- | --- | --- | --- | --- | --- | --- | --- | --- | --- | --- |
| O=C1c2cc(Cl)cc[n+]2[Pd-2]2([Cl])[S+]=P(c3ccccc3)(c3ccccc3)C(c3ccccc3)[N]12 (racemic) [Compound 9, [κ^3-S,N,N-(L)Pd(II)Cl] complex] | 8 ± 1.5 µM | 8 ± 0.7 µM | 6.2 ± 2 µM | 9 ± 1 µM | 10.5 ± 1.5 µM | 3.2 ± 0.4 µM | 2.4 ± 0.6 µM | 6.5 ± 1.5 µM | 10 ± 4 µM | 6.2 ± 1.8 µM | 7 ± 0.5 µM | 8 ± 0.5 µM | stability in solution (DMSO) [4]: stable in solution |
| O=C1c2cccc[n+]2[Pd-2]2([Cl])[S+]=P(c3ccccc3)(c3ccccc3)C(c3ccccc3)[N]12 (racemic) [Ia] | – | 30 ± 2 µM | – | 34 ± 4 µM | – | – | – | – | – | – | – | – | IC50 [14]: 10 ± 2.5 µM; IC50 [15]: 34 ± 4 µM; IC50 [16]: 2.4 ± 0.3 µM; IC50 [17]: 5.8 ± 1.2 µM; IC50 [18]: 4 ± 0.4 µM; IC50 [19]: 3.2 ± 0.4 µM; IC50 [20]: 16 ± 0.5 µM; IC50 [21]: 7.4 ± 0.4 µM; IC50 [22]: 6.2 ± 0.5 µM; IC50 [23]: 3 ± 0.5 µM |
| COc1cc2c(cc1OC)CN(CCc1ccc(NC(=O)c3cccc4c(=O)c5cccc(OC)c5[nH]c34)cc1)CC2 [elacridar] | – | – | – | – | – | – | – | – | – | – | – | – | effect on Rh123 efflux / interaction with P-gp [24]: almost completely blocks the efflux of Rh123 |
| N#Cc1ccccc1.N#Cc1ccccc1.[Cl][Pd][Cl] [PdCl2(NCPh)2] | – | – | – | – | – | – | – | – | – | – | – | – | concentration up to which inactive, hematopoietic cancer cells [25]: > 40 µM; concentration up to which inactive, solid cancer cells [26]: > 60 µM |
| CC(C)C1[N]2C(=O)c3cccc[n+]3[Pd-2]2([Cl])[S+]=P1(c1ccccc1)c1ccccc1 (racemic) [Compound 18] | 4.8 ± 1.2 µM | – | 19.2 ± 1.3 µM | – | 23.3 ± 2.7 µM | 3.4 ± 0.1 µM | 3 ± 1.2 µM | 14 ± 1.4 µM | 9.5 ± 1.8 µM | 6.4 ± 1.7 µM | 9.2 ± 1.8 µM | 11.5 ± 1.5 µM | Inhibition Zone, G. auringiensis (VKM Y-2927) ([27]; 0.25 mM): 0 mm; Inhibition Zone, G. auringiensis (VKM Y-2927) ([27]; 2.50 mM): 0 mm; percentage of necrotic cells (upper left), K562 [28]: 0.2%; Inhibition Zone, B. subtillis (VKM B-501) ([29]; 0.25 mM): 0.5 ± 0.2 mm; Inhibition Zone, B. subtillis (VKM B-501) ([29]; 2.50 mM): 0.5 ± 0.2 mm; percentage of necrotic cells (upper left), K562/iS9 [30]: 0.4%; Inhibition Zone, M. luteus (VKM Ac-2230) ([31]; 0.25 mM): 0.5 ± 0.3 mm; Inhibition Zone, M. luteus (VKM Ac-2230) ([31]; 2.50 mM): 4.0 ± 0.5 mm |

Reference: PMC12111564, “Extended Family of Thiophosphoryl-Appended Pd(II) Pincer Complexes with a Deprotonated Amide Core: Synthesis and Biological Evaluation” (International Journal of Molecular Sciences, 2025)
